Source: patent publication US20260191838A1, “COMBINATIONS COMPRISING A MENIN-MLL INHIBITOR AND A BCL-2 INHIBITOR” (JANSSEN PHARMACEUTICA NV, priority 2022, published 2026)
pIC50: −log10 of the molar value.

Assays:
MOLM14 cells = test: Proliferation (spheroid) assay, MOLM14; type: cell-based; settings: Homo sapiens, MOLM-14, 192 h, 8 days; read-out: spheroid assay_MOLM14 IC50
Method: The anti-proliferative effect of menin/MLL protein/protein interaction inhibitor test compounds was assessed in human leukemia cell lines. The cell line MOLM14 harbors a MLL translocation and expresses the MLL fusion protein MLL-AF9, respectively, as well as the wildtype protein from the second allele. OCI-AML3 cells that carry the NPM1c gene mutation were also tested. […] KO-52 was used as a control cell line containing two MLL (KMT2A) wildtype alleles in order to exclude compounds that display general cytotoxic effects.
MOLM14 cells were cultured in RPMI-1640 (Sigma Aldrich) supplemented with 10% heat-inactivated fetal bovine serum (HyClone), 2 mM L-glutamine (Sigma Aldrich) and 50 μg/ml gentamycin (Gibco). KO-52 and OCI-AML3 cell lines were propagated in alpha-MEM (Sigma Aldrich) supplemented with 20% heat-inactivated fetal bovine serum (HyClone), 2 mM L-glutamine (Sigma Aldrich) and 50 μg/ml gentamycin (Gibco).
In order to assess the anti-proliferative effects, 200 MOLM14 cells, […] or 300 KO-52 cells were seeded in 200 μl media per well in 96-well round bottom, ultra-low attachment plates (Costar, catalogue number 7007). Cell seeding numbers were chosen based on growth curves to ensure linear growth throughout the experiment. Test compounds were added at different concentrations and the DMSO content was normalized to 0.3%. Cells were incubated for 8 days at 37° C. and 5% CO2. Spheroid like growth was measured in real-time by live-cell imaging (IncuCyteZOOM, Essenbio, 4× objective) acquiring images at day 8. Confluence (%) as a measure of spheroid size was determined using an integrated analysis tool.
In order to determine the effect of the test compounds over time, the confluence in each well as a measure of spheroid size, was calculated. Confluence of the highest dose of a reference compound was used as baseline for the LC (Low control) and the confluence of DMSO treated cells was used as 0% cytotoxicity (High Control, HC).
Absolute IC50 values were calculated as percent change in confluence as follows: • LC=Low Control: cells treated with e.g. 1 μM of the cytotoxic agent staurosporin, or e.g. cells treated with a high concentration of an alternative reference compound • HC═High Control: Mean confluence (%) (DMSO treated cells) • % Effect=100−(100*(Sample-LC)/(HC-LC))
GraphPad Prism (version 7.00) was used to calculate the ICso. Dose-response equation was used for the plot of % Effect vs Log10 compound concentration with a variable slope and fixing the maximum to 100% and the minimum to 0%.

MEIS1 mRNA = MEIS1 mRNA expression assay (Quantigene Singleplex) in MOLM14 cells; type: cell-based; settings: Homo sapiens, MOLM-14, 48 h
Method: 2b) MEIS1 mRNA Expression Assay
MEIS1 mRNA expression upon treatment of compound was examined by Quantigene Singleplex assay (Thermo Fisher Scientific). This technology allows for direct quantification of mRNA targets using probes hybridizing to defined target sequences of interest and the signal is detected using a Multimode plate reader Envision (PerkinElmer). The MOLM14 cell line was used for this experiment. Cells were plated in 96-well plates at 3,750 cells/well in the presence of increasing concentrations of compounds. After incubation of 48 hours with compounds, cells were lysed in lysis buffer and incubated for 45 minutes at 55° C. Cell lysates were mixed with human MEIS1 specific capture probe or human RPL28 (Ribosomal Protein L28) specific probe as a normalization control, as well as blocking probes. Cell lysates were then transferred to the custom assay hybridization plate (Thermo Fisher Scientific) and incubated for 18 to 22 hours at 55° C. Subsequently, plates were washed to remove unbound materials followed by sequential addition of preamplifiers, amplifiers, and label probe. Signals (=gene counts) were measured with a Multimode plate reader Envision. IC50s were calculated by dose-response modelling using appropriate software. For all non-housekeeper genes response equal counts corrected for background and relative expression. For each sample, each test gene signal (background subtracted) was divided by the normalization gene signal (RPL28: background subtracted). Fold changes were calculated by dividing the normalized values for the treated samples by the normalized values for the DMSO treated sample. Fold changes of each target gene were used for the calculation of IC50s.

[1] = tested on: MOLM-13 tumors in NSG mice; test: Efficacy (survival) in disseminated MOLM-13 (KMT2A-rearranged) IV model in NSG mice; type: in vivo; settings: NSG mice with established MOLM-13 tumors, 4 weeks treatment; azacitidine 2 mg/kg ip QD × 7, venetoclax 100 mg/kg po QD × 28, Compound 51 2 mg/kg po QD × 28 (Table 6)
Method: 4) Efficacy of Menin-KMT2A Inhibitor in Combination with Venetoclax, and Optionally, Azacitidine, in MOLM-13 (KMT2A-Rearranged) IV Model in NSG Mice
Compound 51 was formulated in purified pyrogen-free deionized water, pH 4.0 and prepared to reach a total volume of 8 mL/kg. Doses were adjusted by individual body weight each day. Working stocks of Compound 51 were prepared once per week for each study and stored at 25° C.
Female NSG (NOD.Cg-Prkdc^scid Il2rg^tm1Wj1/SzJ) mice were used when they were approximately 6 to 8 weeks of age and weighed approximately 25 g. All animals could acclimate and recover from any shipping-related stress for a minimum of 7 days prior to experimental use. Autoclaved water and irradiated food were provided ad libitum, and the animals were maintained on a 12 hour light and dark cycle. Cages, bedding, and water bottles were autoclaved before use and changed weekly. The tissue culture and cell injection reagents are summarized below in Table 5.
Tumor Model and Cell Culture Method
Human AML MOLM-13 cells were cultured at 37° C., 5% CO2 in the indicated complete culture media (RPMI 1640+10% HI-FBS+2 mM L-glutamine+50 μg/ml Gentamycin). Cells were harvested while in logarithmic growth and resuspended in cold (4° C.) Roswell Park Memorial Institute (RPMI) 1640 in serum-free medium.
For the disseminated MOLM-13 model, each mouse received 1×10^5 cells via IV injection in a total volume of 0.2 mL using a 26-gauge needle.
Day 0 is the day of tumor cell implantation and study initiation.
Mice bearing IV MOLM-13 xenograft tumors were randomly assigned to treatment groups 5 days post-tumor cell engraftment.
Animals were monitored daily for clinical signs related to either compound toxicity or tumor burden (i.e., hind limb paralysis, lethargy, etc.).
For survival assessment, results were plotted as the percentage survival against days post tumor implant. Negative clinical signs and/or ≥20% body weight loss was used as a surrogate endpoint for death. Median survival was determined utilizing Kaplan-Meier survival analysis. The percent increased life span (ILS) was calculated as: ((median survival day of treated group−median survival day of control group)/median survival day of control group)×100. Animals failing to reach the surrogate endpoint due to adverse clinical signs or death unrelated to treatment were censored for the survival assessment. As defined by NCI criteria, ≅25% ILS is considered biologically significant. (Johnson J I et al. Br J Cancer. 2001. 84(10), 1424-1431).
Survival and body weight data were graphically represented utilizing Prism (Version 9). Statistical significance for body weights was evaluated as described above. Statistical significance was evaluated for Kaplan-Meier survival plots comparing therapeutic treatment group vs. appropriate vehicle-treated control using log-rank (Mantel-Cox) test in R software version 3.4.2. Differences between groups were considered significant when the p value was ≤0.05.
The disseminated MOLM-13 model described above was used to examine the efficacy of menin-KMT2A-inhibitor (formulated as described above) in combination with venetoclax (formulated in polyethylene glycol [PEG]-400/Phosal50/dimethyl sulfoxide [DMSO]), and optionally azacitidine (formulated in 0.9% saline). Treatment with compound(s) was initiated 5 days after cell injection. Compound 51 was given in the morning, and venetoclax or azacitidine was given in the afternoon, approximately 6-8 hr apart.

Menin/MLL = target: T1, Menin/MLL (Homo sapiens, UniProt O00255, T541A); test: Menin/MLL homogenous time-resolved fluorescence (HTRF) assay; type: binding; settings: 30 min incubation of test compound with terbium chelate-labeled menin
T1 construct: Menin (a.a 1-610-6×his tag, 2.3 mg/mL in 20 mM Hepes)
T1 sequence (O00255 with tags, fused parts or gaps T541A): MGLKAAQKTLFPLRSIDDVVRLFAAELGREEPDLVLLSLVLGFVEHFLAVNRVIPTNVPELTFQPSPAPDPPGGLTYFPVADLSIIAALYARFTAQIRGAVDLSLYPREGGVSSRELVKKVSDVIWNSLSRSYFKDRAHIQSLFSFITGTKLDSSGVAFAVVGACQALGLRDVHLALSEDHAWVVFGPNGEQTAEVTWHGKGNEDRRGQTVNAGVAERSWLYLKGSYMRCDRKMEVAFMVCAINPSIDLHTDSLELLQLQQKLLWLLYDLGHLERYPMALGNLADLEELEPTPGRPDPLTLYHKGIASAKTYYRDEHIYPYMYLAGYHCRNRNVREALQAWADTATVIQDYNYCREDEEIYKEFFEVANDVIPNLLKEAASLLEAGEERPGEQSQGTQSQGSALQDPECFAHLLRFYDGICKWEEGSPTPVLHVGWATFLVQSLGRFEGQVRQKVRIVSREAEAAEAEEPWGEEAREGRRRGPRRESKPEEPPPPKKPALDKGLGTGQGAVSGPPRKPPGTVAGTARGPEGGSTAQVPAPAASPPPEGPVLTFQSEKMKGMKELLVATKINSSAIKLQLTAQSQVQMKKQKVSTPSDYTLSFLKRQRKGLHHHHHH
Method: 1) Menin/MLL Homogenous Time-Resolved Fluorescence (HTRF) Assay
To an untreated, white 384-well microtiter plate was added 40 nL 200× test compound in DMSO and 4 μL 2× terbium chelate-labeled menin (vide infra for preparation) in assay buffer (40 mM Tris.HCl, pH 7.5, 50 mM NaCl, 1 mM DTT (dithiothreitol) and 0.05% Pluronic F-127). After incubation of test compound and terbium chelate-labeled menin for 30 min at ambient temperature, 4 μL 2×FITC-MBM1 peptide (FITC-β-alanine-[…]-NH2) (“FITC” means fluorescein isothiocyanate) in assay buffer was added, the microtiter plate centrifuged at 1000 rpm for 1 min and the assay mixtures incubated for 15 min at ambient temperature. The relative amount of menin-FITC-MBM1 complex present in an assay mixture is determined by measuring the homogenous time-resolved fluorescence (HTRF) of the terbium/FITC donor/acceptor fluorphore pair using an EnVision microplate reader (ex. 337 nm/terbium em. 490 nm/FITC em. 520 nm) at ambient temperature. The degree of fluorescence resonance energy transfer (the HTRF value) is expressed as the ratio of the fluorescence emission intensities of the FITC and terbium fluorophores (F^em 520 nm/F^em 490 nm). […]
Compound potencies were determined by first calculating % inhibition at each compound concentration according to equation 1: […]

| Structure (SMILES) | pIC50 (MOLM14 cells) | pIC50 (MEIS1 mRNA) | % ILS (increased life span) [1] [%] | pIC50 (Menin/MLL) |
| --- | --- | --- | --- | --- |
| CNC(=O)N1CCC(CN2CC[C@H](Cc3cn(-c4ccc(F)cc4C(=O)N(C)C(C)C)c4cncc(C)c34)C2)CC1 (single isomer, unassigned) [Compound 101] | 7.39 | 8.15 | – | – |
| COCC(=O)N1CCC(C(C)N2CCC(Cc3cn(-c4ccc(F)cc4C(=O)N(C)C(C)C)c4cncc(C)c34)C2)CC1 (single isomer, unassigned) [Compound 117a] | 8.30 | 8.15 | – | – |
| Nc1ncn([C@@H]2O[C@H](CO)[C@@H](O)[C@H]2O)c(=O)n1 [Azacitidine, azacitidine, reference compound] | – | – | 37 | – |
| CC(=O)N1CCC(N2CC[C@H](Cc3cn(-c4ccc(F)cc4C(=O)N(C)C(C)C)c4cncc(C)c34)C2)CC1 [Compound 156] | 7.38 | 6.73 | – | – |
| Cc1cncc2c1c(CC1CN(CC3CCNC(=O)C3)C1)cn2-c1ccc(F)cc1C(=O)N(C)C(C)C (stereo not shown) [Compound 196] | – | – | – | 9.72 |
| CC(=O)N1CC2CC(N3CC(Cc4cn(-c5ccc(F)cc5C(=O)N(C)C(C)C)c5cncc(C)c45)C3)CC2C1 (stereo not shown) [Compound 294a] | – | – | – | 9.63 |
| CC1(C)CCC(CN2CCN(c3ccc(C(=O)NS(=O)(=O)c4ccc(NCC5CCOCC5)c([N+](=O)[O-])c4)c(Oc4cnc5[nH]ccc5c4)c3)CC2)=C(c2ccc(Cl)cc2)C1 [Venetoclax, venetoclax, reference compound] | – | – | 11 | – |
